Patent US20230312550A1, “N-(2-(4-CYANOTHIAZOLIDIN-3-YL)-2-OXOETHYL)-QUINOLINE-4-CARBOXAMIDES” (AstraZeneca AB, priority 2020, published 2023)
Values after ≈ are worked out from the molar mass of the structure shown.

What was measured:
[1] = biological target: hFAP (M39-A757) (Homo sapiens (Human), UniProt Q12884); assay: hFAP binding assay (surface plasmon resonance); details: SPR, 20° C.; for hFAP Binding assay k(off) / hFAP Binding assay k(on): single cycle kinetics; for Kd: n = 1 or geometric mean n = 2-4
Sequence of hFAP (M39-A757) (Q12884 39-757): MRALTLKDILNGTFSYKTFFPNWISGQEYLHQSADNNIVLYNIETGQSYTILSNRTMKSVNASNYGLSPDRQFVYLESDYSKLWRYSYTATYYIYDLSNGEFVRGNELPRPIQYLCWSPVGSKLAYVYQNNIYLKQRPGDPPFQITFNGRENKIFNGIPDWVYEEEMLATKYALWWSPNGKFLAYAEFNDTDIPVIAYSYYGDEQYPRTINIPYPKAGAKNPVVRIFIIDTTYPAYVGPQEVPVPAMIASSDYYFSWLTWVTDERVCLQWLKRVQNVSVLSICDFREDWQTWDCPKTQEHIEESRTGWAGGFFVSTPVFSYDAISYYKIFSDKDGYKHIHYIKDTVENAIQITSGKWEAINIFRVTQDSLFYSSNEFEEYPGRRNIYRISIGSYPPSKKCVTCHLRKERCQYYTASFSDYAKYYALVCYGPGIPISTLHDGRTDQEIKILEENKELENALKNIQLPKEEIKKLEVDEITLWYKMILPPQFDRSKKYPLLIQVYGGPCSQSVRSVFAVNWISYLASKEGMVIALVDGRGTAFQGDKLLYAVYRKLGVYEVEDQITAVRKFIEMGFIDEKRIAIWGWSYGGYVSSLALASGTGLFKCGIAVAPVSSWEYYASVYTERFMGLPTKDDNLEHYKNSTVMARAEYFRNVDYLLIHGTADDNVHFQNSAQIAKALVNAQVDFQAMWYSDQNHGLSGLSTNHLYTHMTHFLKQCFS

[2] = Metabolic stability in rat hepatocytes (rHep); details: n = 1 or geometric mean of n = 2-3
[3] = Metabolic stability in human liver microsomes (HLM); details: human
Experimental: Metabolic stability in HLM was measured as described in J Comput Aided Mol Des 2015, 29, 795.

[4] = biological target: FAP (Homo sapiens (Human), UniProt Q12884); assay: hFAP inhibition assay; type: biochemical; details: hFAP […], Ala-Pro-AMC 20 μM; n = 1 or geometric mean n = 2-3
Sequence of FAP (Q12884 38-760): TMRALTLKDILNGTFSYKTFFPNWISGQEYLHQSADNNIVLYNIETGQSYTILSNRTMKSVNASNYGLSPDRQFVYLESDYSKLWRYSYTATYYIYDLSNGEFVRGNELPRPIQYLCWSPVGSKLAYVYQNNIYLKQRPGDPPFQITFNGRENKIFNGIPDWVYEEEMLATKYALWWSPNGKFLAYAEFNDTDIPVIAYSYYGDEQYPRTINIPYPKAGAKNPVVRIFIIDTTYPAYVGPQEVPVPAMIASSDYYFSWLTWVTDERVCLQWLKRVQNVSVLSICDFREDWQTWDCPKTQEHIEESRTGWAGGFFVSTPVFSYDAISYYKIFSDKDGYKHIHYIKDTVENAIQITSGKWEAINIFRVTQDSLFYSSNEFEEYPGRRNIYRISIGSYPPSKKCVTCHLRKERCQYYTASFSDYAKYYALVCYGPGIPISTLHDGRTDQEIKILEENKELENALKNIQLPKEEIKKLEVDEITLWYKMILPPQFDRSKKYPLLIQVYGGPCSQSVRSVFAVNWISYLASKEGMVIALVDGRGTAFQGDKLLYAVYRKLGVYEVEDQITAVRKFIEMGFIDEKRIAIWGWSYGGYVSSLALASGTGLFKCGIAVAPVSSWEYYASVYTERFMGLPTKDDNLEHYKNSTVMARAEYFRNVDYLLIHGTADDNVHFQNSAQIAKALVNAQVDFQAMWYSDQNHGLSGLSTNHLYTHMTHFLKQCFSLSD
Method in brief: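 Compounds (10-point, 3-fold dilutions from 50 μM top) were preincubated 15 min at rt in the dark with 0.48 nM hFAP in pH 7.4 Tris/NaCl/Chaps buffer. Reaction was started with substrate (40 μM solution) and ran 30 min at rt. Read by fluorescence (340/460 nm); IC50 from one-site fit.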

[5] = biological target: human Fibroblast activation protein alpha (hFAP) (Homo sapiens (Human), UniProt Q12884); assay: hFAP inhibition assay (tight binders); type: biochemical; details: Ala-Pro-AMC 20 μM, n = 1 or geometric mean n = 2-6; also: hFAP 2.4 pM
Sequence of human Fibroblast activation protein alpha (hFAP) (Q12884 38-760): as above
Experimental: The plates were read on a PHERAstar® reader with excitation 340 nm and emission 460 nm. Data were analyzed in Genedata Screener®. IC50 values were determined by plotting % inhibition versus log compound concentration and using a one site dose response model.

[6] = Kinetic solubility; details: kinetic from dmso stock
Experimental: Kinetic solubility was measured as described in Comput Aided Mol Des 2015, 29, 795.

[7] = biological target: Prolyl endopeptidase, Prolyl Oligopeptidase (hPREP) (Homo sapiens (Human), UniProt P48147); assay: hPrep inhibition assay; type: biochemical; details: hPREP 0.6 nM, Z-Gly-Pro-amino-methylcoumarin 50 μM; read-out: PREP IC50
Sequence of Prolyl endopeptidase, Prolyl Oligopeptidase (hPREP) (P48147 whole entry): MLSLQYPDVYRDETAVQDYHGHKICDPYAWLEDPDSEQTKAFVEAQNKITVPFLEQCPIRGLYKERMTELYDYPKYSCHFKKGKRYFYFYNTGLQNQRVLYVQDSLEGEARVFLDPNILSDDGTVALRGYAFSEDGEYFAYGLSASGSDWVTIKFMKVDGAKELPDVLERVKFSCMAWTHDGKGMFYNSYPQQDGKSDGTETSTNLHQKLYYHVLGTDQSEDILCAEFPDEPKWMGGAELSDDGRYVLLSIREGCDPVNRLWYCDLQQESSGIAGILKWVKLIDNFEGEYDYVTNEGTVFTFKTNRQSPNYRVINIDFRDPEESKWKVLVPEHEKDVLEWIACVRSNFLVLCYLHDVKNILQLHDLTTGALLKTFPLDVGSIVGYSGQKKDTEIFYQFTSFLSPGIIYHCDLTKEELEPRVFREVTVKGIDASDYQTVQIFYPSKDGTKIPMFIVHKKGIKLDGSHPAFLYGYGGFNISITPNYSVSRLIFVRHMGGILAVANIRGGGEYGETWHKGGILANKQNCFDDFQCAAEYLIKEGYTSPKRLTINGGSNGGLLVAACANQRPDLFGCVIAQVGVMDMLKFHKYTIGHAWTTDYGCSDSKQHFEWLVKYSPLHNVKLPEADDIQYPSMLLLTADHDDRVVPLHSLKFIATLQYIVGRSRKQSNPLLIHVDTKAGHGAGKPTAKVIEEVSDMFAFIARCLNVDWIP
Method in brief: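 Fluorogenic read-out (340 nm excitation, 460 nm emission) after 20 min at rt, using 50 μM final Z-Gly-Pro-aminomethylcoumarin and 0.6 nM final enzyme, following 15 min compound preincubation. Buffer pH 7.5 with glutathione and Triton X-100. IC50 via one-site model on % inhibition vs log concentration.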

[8] = HLM CLint, n = 1 or average of n = 2-3
[9] = Solubility, kinetic solubility, n = 1 or average of n = 2-3

Compound	hFAP Binding assay k(off) [1]	hFAP Binding assay k(on) [1]	Kd [1]	rHep CLint [2]	microsomal CLint [3, 8]	IC50 [4]	IC50 [5]	solubility [6, 9]	IC50 [7]	microsomal CLint [3]	solubility [6]
CC1(C)CCCN1c1ccc2nccc(C(=O)NCC(=O)N3CSC[C@H]3C#N)c2c1 [Example 57, (R)—N-(2-(4-Cyanothiazolidin-3-yl)-2-oxoethyl)-6-(2,2-dimethylpyrrolidin-1-yl)quinoline-4-carboxamide]	0.00018 s⁻¹	8000000 M⁻¹ s⁻¹	0.022 nM	>300 μL/min/1E6	> 300 µL/min/mg	0.26 nM	0.098 nM	150 µM (≈ 63.5 µg/mL)	160 nM		
N#C[C@@H]1CSCN1C(=O)CNC(=O)c1ccnc2ccc(N3CC4(CC4)C[C@@H]3CF)cc12 [Example 58, N-(2-((R)-4-Cyanothiazolidin-3-yl)-2-oxoethyl)-6-((R)-6-(fluoromethyl)-5-azaspiro[2.4]heptan-5-yl)quinoline-4-carboxamide]	0.091 s⁻¹	8800000000 M⁻¹ s⁻¹	0.016 nM	72 μL/min/1E6		0.23 nM	0.076 nM		180 nM	140 µL/min/mg	5.8 µM (≈ 2.63 µg/mL)
N#C[C@@H]1CSCN1C(=O)CNC(=O)c1ccnc2ccc(N3CCCC[C@@H](F)C3)cc12 [Example 59, N-(2-((R)-4-Cyanothiazolidin-3-yl)-2-oxoethyl)-6-((R)-3-fluoroazepan-1-yl)quinoline-4-carboxamide]	0.00019 s⁻¹	2600000 M⁻¹ s⁻¹	0.087 nM	91 μL/min/1E6	> 300 µL/min/mg	0.27 nM	0.061 nM	40 µM (≈ 17.7 µg/mL)	30 nM		
N#C[C@@H]1CSCN1C(=O)CNC(=O)c1ccnc2ccc(N3CCCC[C@H](F)C3)cc12 [Example 60, N-(2-((R)-4-Cyanothiazolidin-3-yl)-2-oxoethyl)-6-((S)-3-fluoroazepan-1-yl)quinoline-4-carboxamide]	0.00017 s⁻¹	1700000 M⁻¹ s⁻¹	0.099 nM	120 μL/min/1E6	210 µL/min/mg	0.22 nM	0.14 nM	160 µM (≈ 70.6 µg/mL)	86 nM		
C[C@@H]1CCN(c2ccc3nccc(C(=O)NCC(=O)N4CSC[C@H]4C#N)c3c2)CCO1 [Example 61, N-(2-((R)-4-Cyanothiazolidin-3-yl)-2-oxoethyl)-6-((R)-7-methyl-1,4-oxazepan-4-yl)quinoline-4-carboxamide]			0.062 nM	26 μL/min/1E6	47 µL/min/mg	0.21 nM	0.06 nM	670 µM (≈ 294 µg/mL)	390 nM		
C[C@H]1CCN(c2ccc3nccc(C(=O)NCC(=O)N4CSC[C@H]4C#N)c3c2)CCO1 [Example 62, N-(2-((R)-4-Cyanothiazolidin-3-yl)-2-oxoethyl)-6-((S)-7-methyl-1,4-oxazepan-4-yl)quinoline-4-carboxamide]	0.000085 s⁻¹	710000 M⁻¹ s⁻¹	0.12 nM	46 μL/min/1E6	31 µL/min/mg	0.25 nM	0.058 nM	640 µM (≈ 281 µg/mL)	280 nM		
